According to PubChem BioAssay AID1347 (Sanford-Burnham Center for Chemical Genomics, 2008):
The source made the active and inactive calls.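 Rule for the calls: active = survival repeatably raised 25 points above the stressor-only control level of 35%, about 60% survival; inactive = the rest.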

Test system: differentiated CSM14.1, thapsigargin death rescue, ATPlite, 24 h
Experiment: rescue of neuronal CSM14.1 from thapsigargin, SAR follow-up, cell-based, differentiated CSM14.1, ATP luminescence (AID 1347)
Conditions: at 25 µM; stronger effect = higher value

| Structure (SMILES) | survival |
| --- | --- |
| CCCOc1ccc(C2Nc3ccccc3NC3=C2C(=O)CC(c2ccc(OC)c(OC)c2)C3)cc1 (stereo unspecified) | 68% |
| CCOc1cccc(C2Nc3ccccc3NC3=C2C(=O)CC(c2ccc(OC)cc2)C3)c1 (stereo unspecified) | 64% |
| CCOc1cc(C2Nc3ccccc3NC3=C2C(=O)CC(c2ccc(OC)cc2)C3)cc(Cl)c1O (stereo unspecified) | 20% (inactive) |
| COc1ccc(C2CC(=O)C3=C(C2)Nc2ccccc2NC3c2cccc(Oc3ccccc3)c2)cc1OC (stereo unspecified) | 66% |
| COc1ccc(C2CC(=O)C3=C(C2)Nc2ccccc2NC3c2ccccc2C(F)(F)F)cc1OC (stereo unspecified) | 68% |
| CSc1ccc(C2Nc3ccccc3NC3=C2C(=O)CC(c2ccccc2)C3)cc1 (stereo unspecified) | 65% |
| CC1(C)CC(=O)C2=C(C1)Nc1ccccc1NC2c1ccc(-c2ccccc2)cc1 (stereo unspecified) | 47% |
| COc1ccc(C2CC(=O)C3=C(C2)Nc2ccccc2NC3c2cc(C)ccc2C)cc1 (stereo unspecified) | 69% |
| COc1ccc(C2CC(=O)C3=C(C2)Nc2ccccc2NC3c2cccc(Br)c2)cc1OC (stereo unspecified) | 63% |
| COc1ccc(C2CC(=O)C3=C(C2)Nc2ccccc2NC3c2cccc(C(F)(F)F)c2)cc1OC (stereo unspecified) | 65% |
| O=C1CC(c2ccccc2)CC2=C1C(c1c(F)cccc1Cl)Nc1ccccc1N2 (stereo unspecified) | 10% (inactive) |
